{
  "source": "patent US11844782B2",
  "about": "“Aqueous composition comprising dantrolene” (SPEPHARM AG, priority 2015, dated 2023)",
  "experiment": "Solubility of dantrolene sodium salt with cyclodextrins at pH 6.0 to 10.0 (FIGS. 1-5, 11, 12)",
  "type": "physicochemical",
  "conditions": "pH 9; 2-hydroxypropyl-β-cyclodextrin 50 mg/ml, dantrolene sodium salt 1 mg/ml",
  "description": "In these experiments four different cyclodextrins were tested in combination with dantrolene sodium salt. The concentration of the cyclodextrin compound was 50 mg/ml and the concentration of dantrolene sodium salt was 1 mg/ml. The pH values were adjusted by using a buffer composed of phosphate 25 mM and Tromethamine 25 mM in water to reach pH 6.0, 7.0, 8.0, 9.0 and 10.0, respectively. The obtained solutions were stored at room temperature and examined over the course of 10 days. The solubility of dantrolene sodium salt was determined after 24 and 48 hours. The solutions were analyzed by visual observation, whilst the content of the dantrolene sodium salt and the degradation profile were determined by HPLC and pH value monitoring.\nDantrolene content and degradation profiles were determined on an Agilent Series 1100 HPLC equipment (Agilent Technologies Inc, Santa Clara, CA, USA) fitted with a quaternary pump, an autosampler, a diode-array detector and a thermostated column compartment. Samples were analyzed on a Kinetex XB-C18 column (75×4.6 mm, 2.6 μm, Phenomenex) with mobile phases consisting of water with 0.1% formic acid (A) and acetonitrile with 0.1% formic acid (B) using a linear gradient from 15% to 45% (B) in 12 minutes. […]",
  "note": "Structures can show the parent of a compound that is named as a salt.",
  "data": [
    {"compound": "O=C1CN(/N=C/c2ccc(-c3ccc([N+](=O)[O-])cc3)o2)C(O)=N1", "note": "[dantrolene salt, dantrolene sodium salt]", "values": [
      {"measurement": "solubility of the dantrolene salt", "result": "almost complete solubility"}
    ]}
  ]
}
